Experimental data published in ChEMBL document CHEMBL2429778, “Hydroxyclerodanes from Salvia shannoni” (J Nat Prod, 2013).
Converted amounts (≈) assume the structure as drawn.

Experiments:
MCF7 = experiment: Cytotoxicity against human MCF7 cells after 48 hrs by SRB method; format: functional, cell-based; conditions: MCF7, 48 h
SK-LU-1 = experiment: Cytotoxicity against human SKLU1 cells after 48 hrs by SRB method; format: functional, cell-based; conditions: SK-LU-1, 48 h
Mus musculus = experiment: Antiinflammatory activity against TPA-induced CD-1 mouse ear edema model assessed as swelling per ear after 4 hrs relative to control; format: functional, organism-based
HCT-15 = experiment: Cytotoxicity against human HCT15 cells after 48 hrs by SRB method; format: functional, cell-based; conditions: HCT-15, 48 h
Entamoeba histolytica = experiment: Antiprotozoal activity against clinical isolates of Entamoeba histolytica HM-1:IMSS; format: functional, organism-based
Giardia intestinalis = experiment: Antiprotozoal activity against clinical isolates of Giardia lamblia IMSS:8901:1; format: functional, organism-based; conditions: Giardia duodenalis
U-251 = experiment: Cytotoxicity against human U251 cells after 48 hrs by SRB method; format: functional, cell-based; conditions: U-251, 48 h
PC-3 = experiment: Cytotoxicity against human PC3 cells after 48 hrs by SRB method; format: functional, cell-based; conditions: PC-3, 48 h
K562 = experiment: Cytotoxicity against human K562 cells after 48 hrs by SRB method; format: functional, cell-based; conditions: K562, 48 h

SMILES	IC50 (Mus musculus) [µmol]	IC50 (Entamoeba histolytica) [µg/mL]	IC50 (Giardia intestinalis) [µg/mL]	IC50 (MCF7) [µM]	IC50 (SK-LU-1) [µM]	IC50 (HCT-15) [µM]	IC50 (U-251) [µM]	IC50 (PC-3) [µM]	IC50 (K562) [µM]
C[C@]12C[C@H](c3ccoc3)OC(=O)[C@H]1CC[C@@]13COC(=O)[C@H]1C[C@@H]1O[C@@H]1[C@]32O	> 1	56.8 (≈ 152 µM)	63.3 (≈ 169 µM)	> 50	> 50	> 50	> 50	> 50	> 50
C[C@]12C[C@H](c3ccoc3)OC(=O)[C@H]1CC[C@@]13COC(=O)[C@@H]1C=C[C@@H](O)[C@H]23	–	57.4 (≈ 160 µM)	71.7 (≈ 200 µM)	–	–	–	–	–	–
C[C@]12C[C@H](c3ccoc3)OC(=O)[C@@]1(O)CC[C@@]13COC(=O)C1=CC[C@H]1O[C@]132 [TEHUANINE G]	–	71.2 (≈ 191 µM)	86.4 (≈ 232 µM)	–	–	–	–	–	–
Oc1cc(O)c2c(c1)O[C@H](c1ccc(O)c(O)c1)[C@@H](O)C2 [CIANIDANOL]	–	65.6 (≈ 226 µM)	33.9 (≈ 117 µM)	–	–	–	–	–	–
NCCc1ccc(O)cc1 [TYRAMINE]	–	54.2 (≈ 395 µM)	68.9 (≈ 502 µM)	–	–	–	–	–	–

Continued, in another order:

IC50 (Mus musculus) [µmol]	IC50 (Entamoeba histolytica) [µg/mL]	IC50 (Giardia intestinalis) [µg/mL]	SMILES	IC50 (MCF7) [µM]	IC50 (SK-LU-1) [µM]	IC50 (HCT-15) [µM]	IC50 (U-251) [µM]	IC50 (PC-3) [µM]	IC50 (K562) [µM]
> 1	76.3 (≈ 195 µM)	82.1 (≈ 210 µM)	C[C@]12C[C@H](c3ccoc3)OC(=O)[C@@]1(O)CC[C@@]13COC(=O)[C@]1(O)CC=C[C@]23O	> 50	> 50	> 50	> 50	> 50	> 50
> 1	84.7 (≈ 236 µM)	94.8 (≈ 265 µM)	C[C@]12C[C@H](c3ccoc3)OC(=O)[C@H]1CC[C@@]13COC(=O)[C@H]1CC=C[C@]32O	> 50	> 50	> 50	> 50	> 50	> 50
–	79.7 (≈ 213 µM)	85.8 (≈ 229 µM)	C[C@]12C[C@H](c3ccoc3)OC(=O)[C@@]1(O)CC[C@@]13COC(=O)[C@H]1CC=C[C@]32O	–	–	–	–	–	–
> 1	63.3 (≈ 177 µM)	73.1 (≈ 204 µM)	C[C@]12C[C@H](c3ccoc3)OC(=O)[C@@]1(O)CC[C@@]13COC(=O)[C@H]1CC=C[C@H]32	> 50	> 50	> 50	> 50	> 50	> 50
> 1	56.5 (≈ 158 µM)	42.4 (≈ 118 µM)	C[C@]12C[C@H](c3ccoc3)OC(=O)[C@@]1(O)CC[C@@]13COC(=O)[C@@H]1C=CC[C@@H]32	> 50	> 50	> 50	> 50	> 50	> 50
